Patent publication US8338565B2, “Macrocyclic compounds for inhibition of tumor necrosis factor alpha” (Ensemble Therapeutics Corporation, priority 2008, dated 2012)
Numbered stars: 1 amine (or outer) side, 2 acyl side, 3 side chain; on linkers, the order of the positions; unused ones are H or OH. Bridge positions count the residues as written; N and C are the ends. Square brackets hold non-standard residues; d marks the D form. Peptide text beside a SMILES is read from it. * marks the point of attachment. Tartaroyl(2R,3R-(OAc)2) = CC(=O)O[C@@H](C(=O)[*:1])[C@@H](OC(C)=O)C(=O)[*:2]; Gly(N-(4-CH2NH-benzyl)) = O=C(CN(Cc1ccc(CN[*:3])cc1)[*:1])[*:2]; Phe(3-CF3) = N[C@@H](Cc1cccc(C(F)(F)F)c1)C(=O)O; Phe(4-CF3) = N[C@@H](Cc1ccc(C(F)(F)F)cc1)C(=O)O; Phe(2,4-Cl2) = N[C@@H](Cc1ccc(Cl)cc1Cl)C(=O)O; Bip = N[C@@H](Cc1ccc(-c2ccccc2)cc1)C(=O)O; dPhe(4-NH2) = Nc1ccc(C[C@@H](N)C(=O)O)cc1; Phe(4-Br) = N[C@@H](Cc1ccc(Br)cc1)C(=O)O; Phe(4-NH2) = Nc1ccc(C[C@H](N)C(=O)O)cc1; Maleoyl = O=C(/C=C\C(=O)[*:2])[*:1]; Lys(Me2) = CN(C)CCCC[C@H](N)C(=O)O; d(hPhe) = N[C@H](CCc1ccccc1)C(=O)O; Cha = N[C@@H](CC1CCCCC1)C(=O)O; d2Thi = N[C@H](Cc1cccs1)C(=O)O; NH(CH2)2O(CH2)2NH2 = NCCOCCN*; Suc = O=C(CCC(=O)[*:2])[*:1]; NHCH2CH2OH = OCCN*

Target: T1, TNFα / TNFα receptor (TNFα R1/Fc) (Homo sapiens, UniProt P01375)
T1 construct: purchased R&D Systems
Assay: Inhibition of binding of TNFα to the TNFα receptor (plate ELISA competition)
Conditions: Table 2; read-out: Activity (IC50, inhibition of TNFα binding to TNFα R1/Fc)
Summary of the method: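 Compound dilutions were preincubated 30 min at RT with 8.33 nM TNFα R1/Fc in PBST with 2% DMSO, then added to wells coated with 15 nM TNFα for 30 min. Bound receptor was detected with HRP anti-human Fc and TMB, read as A450.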

T1 sequence (P01375 77-233 limits assumed, species assumed): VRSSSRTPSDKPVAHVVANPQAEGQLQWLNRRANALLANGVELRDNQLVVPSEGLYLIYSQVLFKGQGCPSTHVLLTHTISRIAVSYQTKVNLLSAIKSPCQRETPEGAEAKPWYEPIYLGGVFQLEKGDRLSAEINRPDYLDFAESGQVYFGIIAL

Structure (SMILES)	IC50 [µM]
CC(C)(NC(=O)[C@@H]1Cc2ccc(cc2)NC(=O)[C@H](O)[C@@H](O)C(=O)N[C@H](Cc2cccs2)C(=O)N[C@@H](Cc2ccc(-c3ccccc3)cc2)C(=O)N[C@H](Cc2ccccc2)C(=O)N1)C(=O)O [Compound 176]	> 100
O=C(O)[C@@H]1Cc2ccc(cc2)NC(=O)[C@H](O)[C@@H](O)C(=O)N[C@H](Cc2cccs2)C(=O)N[C@@H](Cc2ccc(OCc3ccccc3)cc2)C(=O)N[C@H](Cc2ccccc2)C(=O)N1 [Compound 177]	30 to 100
O=C(O)[C@@H]1Cc2ccc(cc2)NC(=O)[C@H](O)[C@@H](O)C(=O)N[C@H](Cc2cccs2)C(=O)N[C@@H](Cc2ccc(C(F)(F)F)cc2)C(=O)N[C@H](Cc2ccccc2)C(=O)N1 [Compound 178]	> 100
O=C1CCC(=O)N[C@H](CCc2ccccc2)C(=O)N[C@@H](Cc2ccc(-c3cccc(F)c3)cc2)C(=O)N[C@H](Cc2ccccc2)C(=O)N[C@H](C(=O)O)Cc2ccc(cc2)N1 [Compound 181]	10 to 30
O=C1CCC(=O)N[C@H](CCc2ccccc2)C(=O)N[C@@H](Cc2ccc(-c3cc(F)cc(F)c3)cc2)C(=O)N[C@H](Cc2ccccc2)C(=O)N[C@H](C(=O)O)Cc2ccc(cc2)N1 [Compound 182]	30 to 100
O=C1CCC(=O)N[C@H](CCc2ccccc2)C(=O)NC(c2ccc(Br)cc2)C(=O)N[C@H](Cc2ccccc2)C(=O)N[C@H](C(=O)O)Cc2ccc(cc2)N1 (some centres unmarked) [Compound 183]	10 to 30
O=C1N[C@H](Cc2ccccc2)C(=O)N[C@@H](C(=O)O)Cc2ccc(cc2)NC(=O)[C@H](O)[C@@H](O)C(=O)N[C@H](Cc2cccs2)C(=O)N[C@H]1Cc1ccc(-c2ccccc2)cc1 [Compound 184]	> 100
O=C(O)[C@@H]1Cc2ccc(cc2)NC(=O)[C@@H](O)[C@H](O)C(=O)N[C@H](Cc2cccs2)C(=O)N[C@@H](Cc2ccc(-c3ccccc3)cc2)C(=O)N[C@H](Cc2ccccc2)C(=O)N1 [Compound 185]	> 100
O=C(O)CN1Cc2ccc(cc2)CNC(=O)CCC(=O)N[C@H](Cc2cccs2)C(=O)N[C@@H](Cc2ccc(-c3ccccc3)cc2)C(=O)N[C@H](Cc2ccccc2)C1=O [Compound 186] ([d2Thi][Bip][dF][Gly(N-(4-CH2NH-benzyl))]-OH; linker N-4 via Suc)	30 to 100
O=C(O)[C@@H]1Cc2ccc(cc2)NC(=O)[C@@H]2CCCC[C@@H]2C(=O)N[C@H](Cc2cccs2)C(=O)N[C@@H](Cc2ccc(-c3ccccc3)cc2)C(=O)N[C@H](Cc2ccccc2)C(=O)N1 [Compound 187]	> 100
O=C(O)[C@@H]1Cc2ccc(cc2)NC(=O)[C@H](O)[C@@H](O)C(=O)N[C@H](Cc2cccs2)C(=O)N[C@@H](Cc2ccc(-c3cccc(O)c3)cc2)C(=O)N[C@H](Cc2ccccc2)C(=O)N1 [Compound 188]	> 100
O=C(O)[C@@H]1Cc2ccc(cc2)NC(=O)[C@H](O)[C@@H](O)C(=O)N[C@H](Cc2cccs2)C(=O)N[C@@H](Cc2ccc(Cl)cc2Cl)C(=O)N[C@H](Cc2ccccc2)C(=O)N1 [Compound 189]	> 100
O=C(O)[C@@H]1Cc2ccc(cc2)NC(=O)[C@H](O)[C@@H](O)C(=O)N[C@H](Cc2cccs2)C(=O)N[C@@H](Cc2ccc3ccccc3c2)C(=O)N[C@H](Cc2ccccc2)C(=O)N1 [Compound 190]	10 to 30
O=C1CCC(=O)N[C@@H](CC2CCCCC2)C(=O)N[C@@H](Cc2ccc(-c3ccccc3)cc2)C(=O)N[C@H](CCc2ccccc2)C(=O)N[C@H](C(=O)O)Cc2ccc(cc2)N1 [Compound 191] ([Cha][Bip][d(hPhe)][Phe(4-NH2)]-OH; linker N-4 via Suc)	< 10
COC(=O)[C@@H]1Cc2ccc(cc2)NC(=O)CCC(=O)N[C@H](Cc2cccs2)C(=O)N[C@@H](Cc2ccc(-c3ccccc3)cc2)C(=O)N[C@H](Cc2ccccc2)C(=O)N1 [Compound 192] ([d2Thi][Bip][dF][Phe(4-NH2)]-OMe; linker N-4 via Suc)	< 10
NCCOCCNC(=O)[C@@H]1Cc2ccc(cc2)NC(=O)CCC(=O)N[C@H](Cc2cccs2)C(=O)N[C@@H](Cc2ccc(-c3ccccc3)cc2)C(=O)N[C@H](Cc2ccccc2)C(=O)N1 [Compound 193] ([d2Thi][Bip][dF][Phe(4-NH2)]-{NH(CH2)2O(CH2)2NH2}; linker N-4 via Suc)	< 10
O=C1CCC(=O)N[C@H](Cc2cccs2)C(=O)N[C@@H](Cc2ccc(-c3ccccc3)cc2)C(=O)N[C@@H](Cc2ccccc2)C(=O)N[C@H](C(=O)O)Cc2ccc(cc2)N1 [Compound 195] ([d2Thi][Bip]F[Phe(4-NH2)]-OH; linker N-4 via Suc)	> 100

Further lines, results first:

IC50 [µM]	Structure (SMILES)
< 10	O=C1/C=C\C(=O)N[C@@H](CC2CCCCC2)C(=O)N[C@@H](Cc2ccc(-c3ccccc3)cc2)C(=O)N[C@H](CCc2ccccc2)C(=O)N[C@H](C(=O)O)Cc2ccc(cc2)N1 [Compound 197] ([Cha][Bip][d(hPhe)][Phe(4-NH2)]-OH; linker N-4 via Maleoyl)
> 100	O=C1CCC(=O)N[C@H](Cc2cccs2)C(=O)N[C@@H](Cc2ccc(-c3ccccc3)cc2)C(=O)N[C@H](Cc2ccccc2)C(=O)N[C@H](C(=O)N2CCC[C@H]2C(=O)O)Cc2ccc(cc2)N1 [Compound 199] ([d2Thi][Bip][dF][Phe(4-NH2)]P-OH; linker N-4 via Suc)
30 to 100	O=C1CCC(=O)N[C@H](Cc2cccs2)C(=O)N[C@@H](Cc2ccc(-c3ccccc3)cc2)C(=O)N[C@H](Cc2ccccc2)C(=O)N[C@H](C(=O)N2CCC[C@@H]2C(=O)O)Cc2ccc(cc2)N1 [Compound 200] ([d2Thi][Bip][dF][Phe(4-NH2)][dP]-OH; linker N-4 via Suc)
> 100	CN(C)CCCC[C@@H]1NC(=O)[C@@H](Cc2cccs2)NC(=O)CCC(=O)Nc2ccc(cc2)C[C@@H](C(=O)O)NC(=O)[C@@H](Cc2ccccc2)NC1=O [Compound 203] ([d2Thi][Lys(Me2)][dF][Phe(4-NH2)]-OH; linker N-4 via Suc)
> 100	O=C1CCC(=O)N[C@H](Cc2cccs2)C(=O)N[C@@H](Cc2ccc(-c3ccccc3)cc2)C(=O)N[C@H](Cc2ccccc2)C(=O)N[C@H](C(=O)NCCO)Cc2ccc(cc2)N1 [Compound 205] ([d2Thi][Bip][dF][Phe(4-NH2)]-NHCH2CH2OH; linker N-4 via Suc)
> 100	COC(=O)[C@@H]1Cc2ccc(cc2)NC(=O)CCC(=O)N[C@H](CC(=O)O)C(=O)N[C@@H](Cc2ccc(C(F)(F)F)cc2)C(=O)N[C@H](Cc2ccccc2)C(=O)N1 [Compound 206] ([dD][Phe(4-CF3)][dF][Phe(4-NH2)]-OMe; linker N-4 via Suc)
> 100	O=C1CCC(=O)N[C@H](Cc2cccs2)C(=O)N[C@@H](Cc2cccc(C(F)(F)F)c2)C(=O)N[C@H](Cc2ccccc2)C(=O)N[C@H](C(=O)O)Cc2ccc(cc2)N1 [Compound 208] ([d2Thi][Phe(3-CF3)][dF][Phe(4-NH2)]-OH; linker N-4 via Suc)
> 100	O=C1COc2ccc(cc2)C[C@@H](C(=O)O)NC(=O)[C@@H](Cc2ccccc2)NC(=O)[C@@H](Cc2ccc(-c3ccccc3)cc2)NC(=O)[C@@H](Cc2cccs2)N1 [Compound 209]
> 100	O=C1COc2ccc(cc2)C[C@@H](C(=O)O)NC(=O)[C@@H](Cc2ccccc2)NC(=O)[C@@H](Cc2ccc(-c3ccccc3)cc2)NC(=O)[C@H](Cc2cccs2)N1 [Compound 210]
30 to 100	O=C1COc2ccc(cc2)C[C@@H](C(=O)O)NC(=O)[C@H](Cc2ccccc2)NC(=O)[C@@H](Cc2ccc(-c3ccccc3)cc2)NC(=O)[C@@H](Cc2cccs2)N1 [Compound 211]
> 100	O=C1COc2ccc(cc2)C[C@@H](C(=O)O)NC(=O)[C@H](Cc2ccccc2)NC(=O)[C@H](Cc2ccc(-c3ccccc3)cc2)NC(=O)[C@@H](Cc2cccs2)N1 [Compound 213]
< 10	O=C1COc2ccc(cc2)C[C@@H](C(=O)O)NC(=O)[C@H](Cc2ccccc2)NC(=O)[C@@H](Cc2ccc(-c3ccccc3)cc2)NC(=O)[C@H](Cc2cccs2)N1 [Compound 214]
30 to 100	O=C1COc2ccc(cc2)C[C@@H](C(=O)O)NC(=O)[C@@H](Cc2ccccc2)NC(=O)[C@H](Cc2ccc(-c3ccccc3)cc2)NC(=O)[C@H](Cc2cccs2)N1 [Compound 215]
> 100	O=C1COc2ccc(cc2)C[C@@H](C(=O)O)NC(=O)[C@@H](Cc2ccccc2)NC(=O)[C@H](Cc2ccc(C(F)(F)F)cc2)NC(=O)[C@@H](CCc2ccccc2)N1 [Compound 216]
10 to 30	CC(=O)O[C@H]1C(=O)Nc2ccc(cc2)C[C@H](C(=O)O)NC(=O)[C@@H](CCc2ccccc2)NC(=O)[C@H](Cc2ccc(Br)cc2)NC(=O)[C@@H](Cc2ccccc2)NC(=O)[C@@H]1OC(C)=O [Compound 218] ([dF][Phe(4-Br)][d(hPhe)][dPhe(4-NH2)]-OH; linker N-4 via Tartaroyl(2R,3R-(OAc)2))
< 10	CC(=O)O[C@H]1C(=O)Nc2ccc(cc2)C[C@H](C(=O)O)NC(=O)[C@@H](CCc2ccccc2)NC(=O)[C@H](Cc2ccc(Br)cc2)NC(=O)[C@@H](Cc2cccs2)NC(=O)[C@@H]1OC(C)=O [Compound 219] ([d2Thi][Phe(4-Br)][d(hPhe)][dPhe(4-NH2)]-OH; linker N-4 via Tartaroyl(2R,3R-(OAc)2))
10 to 30	CC(=O)O[C@H]1C(=O)Nc2ccc(cc2)C[C@H](C(=O)O)NC(=O)[C@@H](CCc2ccccc2)NC(=O)[C@H](Cc2ccc(Cl)cc2Cl)NC(=O)[C@@H](Cc2ccccc2)NC(=O)[C@@H]1OC(C)=O [Compound 220] ([dF][Phe(2,4-Cl2)][d(hPhe)][dPhe(4-NH2)]-OH; linker N-4 via Tartaroyl(2R,3R-(OAc)2))
30 to 100	CC(=O)O[C@H]1C(=O)Nc2ccc(cc2)C[C@H](C(=O)O)NC(=O)[C@@H](CCc2ccccc2)NC(=O)[C@H](Cc2ccc(Cl)cc2Cl)NC(=O)[C@@H](Cc2cccs2)NC(=O)[C@@H]1OC(C)=O [Compound 221] ([d2Thi][Phe(2,4-Cl2)][d(hPhe)][dPhe(4-NH2)]-OH; linker N-4 via Tartaroyl(2R,3R-(OAc)2))
